Patent US11759461B2, “Small molecule inhibitors of cancer stem cells and mesenchymal cancer types” (The Scripps Research Institute, priority 2017, dated 2023)

system: FOXC2-expressing HMLER cells; assay: Cell Titer Glo viability of FOXC2-HMLER cells (high throughput screen and 10-point response); assay type: cell-based; details: Homo sapiens; scored relative to parent compound 1; 72 hours; read-out: Activity Score, inhibition of FOXC2-expressing HMLER cells by Formula I compounds
In short: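 FOXC2-HMLER cells (HMLER run in parallel) seeded at 1,000 cells/well in MEGM, attached 1 h, then given compound in DMSO (2 μM in the screen). After 72 h, viability was read by Cell Titer Glo luminescence.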

Structure (SMILES) | IC50
Clc1ccc(N2CCN(c3ccccc3Cl)CC2)nn1 [Compound 1E] | > 20 µM
CC1CN(c2cnnc3c(Cl)cccc23)CCN1c1cc(Cl)cc(Cl)c1 (centres unmarked) [Compound 1SRM] | < 1 µM
Clc1cccc(N2CCN(c3cnnc4c(Cl)cccc34)CC2)n1 [Compound 1SRAD] | 1 to 20 µM
CC1CN(c2cc(Cl)cc(Cl)c2)CCN1c1cnnc2c(Cl)cccc12 (centres unmarked) [Compound 1SRL] | < 1 µM
Clc1ccc(N2CCN(c3cnnc4c(Cl)cccc34)CC2)cc1 [Compound 1SRY] | > 20 µM
COc1cc(Cl)cc(N2CCN(c3cnnc4c(Cl)cccc34)CC2)c1 [Compound 1SRAH] | < 0.234 µM

same assay, conditions: Homo sapiens; scored relative to parent compound 2; 72 hours; read-out: Activity Score, inhibition of FOXC2-expressing HMLER cells by Formula II compounds

Structure (SMILES) | IC50
CCc1ccccc1NC(=O)Cn1c(=O)c(CNc2ccc(C)cc2)cc2ccc(OC)cc21 [Compound 2FJ] | > 20 µM
COc1ccc2cc(CNc3ccc(C)cc3)c(=O)n(CC(=O)Nc3ccc(C(C)=O)cc3)c2c1 [Compound 2HV] | > 20 µM
COc1ccc(NCc2cc3ccc(OC)cc3n(CC(=O)Nc3ccccc3F)c2=O)cc1 [Compound 2AT] | > 20 µM
CCc1ccc(NCc2cc3cc(OC)c(OC)cc3n(CC(=O)Nc3cccc(C)c3)c2=O)cc1 [Compound 2DE] | > 20 µM
COc1ccc2cc(CNc3ccc(C)cc3)c(=O)n(CC(=O)Nc3cccc(Cl)c3C)c2c1 [Compound 2H] | 1 to 20 µM
COc1ccc2cc(CNc3ccccc3)c(=O)n(CC(=O)Nc3ccc(C)c(Cl)c3)c2c1 [Compound 2CO] | > 20 µM
CCc1ccc(NCc2cc3ccc(OC)cc3n(CC(=O)Nc3cccc(C)c3)c2=O)cc1 [Compound 2HG] | > 20 µM
COc1ccc(NCc2cc3ccc(OC)cc3n(CC(=O)Nc3ccc(F)cc3)c2=O)cc1 [Compound 2BK] | > 20 µM
COc1ccc2cc(CNc3ccc(C)cc3)c(=O)n(CC(=O)Nc3ccccc3)c2c1 [Compound 2FV] | > 20 µM
COc1ccc2cc(CNc3ccc(C)cc3)c(=O)n(CC(=O)Nc3ccccc3F)c2c1 [Compound 2O] | 1 to 20 µM
COc1ccc2cc(CNc3ccccc3)c(=O)n(CC(=O)NCc3ccc(Cl)cc3)c2c1 [Compound 2AR] | > 20 µM
CCc1ccc(NCc2cc3ccc(OC)cc3n(CC(=O)Nc3ccccc3)c2=O)cc1 [Compound 2HA] | > 20 µM
COc1ccc(NCc2cc3ccc(OC)cc3n(CC(=O)Nc3cc(C)ccc3C)c2=O)cc1 [Compound 2HE] | > 20 µM
COc1ccc(NCc2cc3cc(OC)c(OC)cc3n(CC(=O)Nc3ccc(C)cc3)c2=O)cc1 [Compound 2BD] | > 20 µM
COc1ccc2cc(CNc3ccccc3)c(=O)n(CC(=O)Nc3ccc(F)cc3)c2c1 [Compound 2BH] | > 20 µM
COc1ccc2cc(CNc3ccc(C)cc3)c(=O)n(CC(=O)NCc3ccc(F)cc3)c2c1 [Compound 2DZ] | > 20 µM
COc1ccc(NCc2cc3cc(C)ccc3n(CC(=O)Nc3cc(C)cc(C)c3)c2=O)cc1 [Compound 2IJ] | > 20 µM
COc1ccc(NCc2cc3cc(OC)c(OC)cc3n(CC(=O)Nc3ccccc3C)c2=O)cc1 [Compound 2EM] | > 20 µM
COc1ccc(NCc2cc3ccc(OC)cc3n(CC(=O)Nc3ccccc3OC)c2=O)cc1 [Compound 2GK] | > 20 µM
COc1ccc(NC(=O)Cn2c(=O)c(CNc3ccc(OC)c(OC)c3)cc3ccc(C)cc32)cc1 [Compound 2HU] | > 20 µM

Structure (SMILES) | IC50
CCc1ccccc1NC(=O)Cn1c(=O)c(CNc2ccccc2)cc2cc3c(cc21)OCCO3 [Compound 2AD] | 1 to 20 µM
CC(=O)c1ccc(NC(=O)Cn2c(=O)c(CNc3ccc(C)cc3)cc3cc4c(cc32)OCCO4)cc1 [Compound 2DC] | > 20 µM
COc1ccc2cc(CNc3ccccc3)c(=O)n(CC(=O)NCc3ccc(C)cc3)c2c1 [Compound 2GQ] | > 20 µM
COc1ccc(OC)c(NC(=O)Cn2c(=O)c(CNc3ccccc3)cc3ccc(C)cc32)c1 [Compound 2CM] | > 20 µM
CCc1ccc(NCc2cc3cc4c(cc3n(CC(=O)Nc3ccccc3CC)c2=O)OCCO4)cc1 [Compound 2N] | 1 to 20 µM
COc1cccc(NC(=O)Cn2c(=O)c(CNc3ccccc3)cc3cc(OC)c(OC)cc32)c1 [Compound 2CN] | > 20 µM
COc1ccc2cc(CNc3ccc(C)cc3)c(=O)n(CC(=O)Nc3ccc(Cl)cc3)c2c1 [Compound 2Q] | 1 to 20 µM
COc1ccc2cc(CNc3ccccc3)c(=O)n(CC(=O)Nc3ccc4c(c3)OCCO4)c2c1 [Compound 2EG] | > 20 µM
COc1ccc(NCc2cc3ccc(C)cc3n(CC(=O)Nc3ccccc3C)c2=O)cc1OC [Compound 2AJ] | 1 to 20 µM
COc1ccc2cc(CNc3ccc(C)cc3)c(=O)n(CC(=O)Nc3cccc(C)c3)c2c1 [Compound 2EL] | > 20 µM
COc1ccc(NCc2cc3ccc(C)cc3n(CC(=O)Nc3ccc(C)cc3)c2=O)cc1OC [Compound 2GY] | > 20 µM
COc1ccc2cc(CNc3ccccc3)c(=O)n(CC(N)=O)c2c1 [Compound 2HB] | > 20 µM
CCc1ccc(NCc2cc3ccc(OC)cc3n(CC(=O)Nc3cc(C)cc(C)c3)c2=O)cc1 [Compound 2HQ] | > 20 µM
COc1ccc2cc(CNc3ccccc3)c(=O)n(CC(=O)Nc3ccccc3F)c2c1 [Compound 2DD] | > 20 µM
CCc1ccc(NCc2cc3cc(OC)c(OC)cc3n(CC(=O)Nc3ccccc3)c2=O)cc1 [Compound 2CF] | > 20 µM
CCc1ccc(NCc2cc3ccc(OC)cc3n(CC(=O)Nc3ccccc3CC)c2=O)cc1 [Compound 2AP] | 1 to 20 µM
COc1ccc2cc(CNc3ccc(C)cc3)c(=O)n(CC(=O)Nc3c(C)cccc3C)c2c1 [Compound 2IM] | > 20 µM
COc1ccc2cc(CNc3ccccc3)c(=O)n(CC(=O)Nc3cccc(Cl)c3C)c2c1 [Compound 2EZ] | > 20 µM
CCc1ccc(NCc2cc3cc4c(cc3n(CC(=O)Nc3ccc(CC)cc3)c2=O)OCCO4)cc1 [Compound 2CI] | > 20 µM

same assay, conditions: Homo sapiens; scored relative to parent compound 3; 72 hours; read-out: Activity Score, inhibition of FOXC2-expressing HMLER cells by Formula III compounds

Structure (SMILES) | IC50
Cc1c(C(=O)NCCCN2CCC(Cc3ccccc3)CC2)cccc1-n1nnc2cccnc21 [Compound 3AK] | 1 to 20 µM
Cc1c(C(=O)NCCC(C)N2CCCC2)cccc1-n1nnc2cccnc21 (centres unmarked) [Compound 3CJ] | > 20 µM
Cc1c(C(=O)NCC(C)c2ccccc2)cccc1-n1nnc2cccnc21 (centres unmarked) [Compound 3BT] | > 20 µM
CCN(Cc1ccccc1)C(=O)c1ccc(-n2nnc3cccnc32)cc1 [Compound 3AO] | > 20 µM
Cc1ccc(Cl)cc1N1CCN(C(=O)c2ccc(-n3nnc4cccnc43)cc2)CC1 [Compound 3H] | 1 to 20 µM
Cc1ccc(C(=O)NCCCN2CCN(c3cccc(Cl)c3)CC2)cc1-n1nnc2cccnc21 [Compound 3BK] | > 20 µM
Cc1ccc(C(=O)N(C)Cc2ccccc2)cc1-n1nnc2cccnc21 [Compound 3BC] | > 20 µM
Cc1ccc(C(=O)NC2CCN(Cc3ccccc3)CC2)cc1-n1nnc2cccnc21 [Compound 3BH] | > 20 µM
COc1ccc(N2CCN(CCCNC(=O)c3cccc(-n4nnc5cccnc54)c3C)CC2)cc1 [Compound 3BZ] | > 20 µM
Cc1c(C(=O)NCc2ccccc2)cccc1-n1nnc2cccnc21 [Compound 3BN] | > 20 µM
COc1cccc(N2CCN(C(=O)c3cccc(-n4nnc5cccnc54)c3C)CC2)c1 [Compound 3F] | < 1 µM
Cc1cc(C(=O)Nc2cccc(CN3CCCC3)c2)ccc1-n1nnc2cccnc21 [Compound 3O] | 1 to 20 µM
Cc1ccc(C)c(N2CCN(CCCNC(=O)c3ccc(-n4nnc5cccnc54)cc3)CC2)c1 [Compound 3K] | 1 to 20 µM
Cc1c(C(=O)NCCCN2CCCC(C)C2)cccc1-n1nnc2cccnc21 (centres unmarked) [Compound 3CB] | > 20 µM
Cc1c(C(=O)N2CCN(c3ccccc3)CC2)cccc1-n1nnc2cccnc21 [Compound 3AJ] | 1 to 20 µM
Cc1ccc(NC(=O)c2ccc(-n3nnc4cccnc43)c(C)c2)cc1 [Compound 3AT] | > 20 µM
Cc1cc(C(=O)NCCCN2CCN(C3CCCCC3)CC2)ccc1-n1nnc2cccnc21 [Compound 3AU] | > 20 µM
Cc1ccc(C(=O)NCCCN(C)Cc2ccccc2)cc1-n1nnc2cccnc21 [Compound 3BJ] | > 20 µM
O=C(c1ccc(-n2nnc3cccnc32)cc1)N1CCN(c2ccc(F)cc2)CC1 [Compound 3C] | < 1 µM
O=C(c1ccc(-n2nnc3cccnc32)cc1)N1CCC(Cc2ccccc2)CC1 [Compound 3AI] | 1 to 20 µM

same assay, conditions: Homo sapiens; scored relative to parent compound 4; 72 hours; read-out: Activity Score, inhibition of FOXC2-expressing HMLER cells by Formula IV compounds

Structure (SMILES) | IC50
Cc1ccccc1S(=O)(=O)N1CCN(c2cc(-c3ccccc3)ncn2)CC1 [Compound 4V] | > 20 µM
Cc1ccc(-n2nc(C)c(S(=O)(=O)N3CCN(c4cccc(C)c4C)CC3)c2C)cc1 [Compound 4AE] | > 20 µM
Cc1nn(-c2ccc(-c3ccccc3)nn2)c(C)c1S(=O)(=O)N1CCN(c2ccccn2)CC1 [Compound 4AP] | > 20 µM
Cc1ccc(-c2cc(N3CCN(S(=O)(=O)c4cnn(C(F)F)c4C)CC3)ncn2)cc1 [Compound 4] | < 1 µM
COc1ccc(F)cc1-c1cc(N2CCN(S(=O)(=O)c3cnn(C(F)F)c3C)CC2)ncn1 [Compound 4Z] | > 20 µM
COc1ccc(-c2cc(N3CCN(S(=O)(=O)c4cnn(C(F)F)c4C)CC3)ncn2)cc1 [Compound 4Y] | > 20 µM
Cc1ccc(-c2ccc(-n3nc(C)c(S(=O)(=O)N4CCN(c5ccccc5)CC4)c3C)nn2)cc1 [Compound 4AT] | > 20 µM
Cc1nn(C)c(C)c1S(=O)(=O)N(CC(=O)N1CCN(c2ncccn2)CC1)c1ccc(C(C)C)cc1 [Compound 4Q] | > 20 µM
Cc1ccc(-n2nc(N3CCCN(S(=O)(=O)c4cnn(C(F)F)c4C)CC3)ccc2=O)cc1C [Compound 4AH] | > 20 µM
Cc1nn(-c2ccc(F)cc2)c(C)c1S(=O)(=O)N1CCN(c2ncccn2)CC1 [Compound 4K] | 1 to 20 µM
Cc1ccc(C)c(N2CCN(S(=O)(=O)c3c(C)nn(C)c3C)CC2)c1 [Compound 4D] | < 1 µM
Cc1c(S(=O)(=O)N2CCN(c3cc(-c4ccc(F)cc4)ncn3)CC2)cnn1C(F)F [Compound 4T] | > 20 µM
